Laboratory results taken from patent US20120282169A1, “DETECTION AND TREATMENT OF TRAUMATIC BRAIN INJURY” (Adlyfe, Inc., priority 2009, published 2012).
[ ]: non-standard residue; d: D form. The star is where a group is joined. Butanoyl(4-pyren-1-yl) = O=C(CCCc1ccc2ccc3cccc4ccc1c2c34)*; Biotin = O=C1N[C@H]2[C@H](CS[C@H]2CCCCC(=O)*)N1

What was measured:
synthetic Aβ42 oligomer = synthetic Aβ42 oligomer (Homo sapiens, UniProt P05067); experiment: Self-fluorescence assay of pyrene-labeled probe with synthetic Aβ42 oligomer; assay type: binding; details: 70 nM probe
Protocol: 70 nM of the peptide probe of SEQ ID NO:2 is incubated with 4000, 2000, 1000, 450, 250 and 0 pM synthetic Aβ42 oligomer (in triplicate) in a solution consisting of 10 mM Hepes (pH 7.0), 0.0074% Tween20 and 30% (v/v) normal human CSF (Bioreclamations, Inc.) for 0, 3, and 18 hours at room temperature in a final volume of 200 μL in a microtiter plate. The plate is then analyzed using a Tecan safire^2 fluorescence plate reader. For each sample, the net self-fluorescence response (fluorescence emission from 370-385 nm) is determined by subtraction of the self-fluorescence response of the control (0 pM) from the fluorescence response of the experimental sample.
The specificity of the probe is confirmed as follows. 70 nM of the peptide probe of SEQ ID NO:22 is incubated with several potential substrates in a solution consisting of 10 mM Hepes (pH 7.0), 0.0074% Tween20 and 10% (v/v) normal human CSF. […] There also is a significant response to Aβ42 fiber down to at least 100 nN. […]
70 nM of each of the two peptoid probes 1 or 2 is incubated with 15, 5, 1.5 or 0 nM synthetic Aβ42 oligomer (in triplicate). […] The plate is then analyzed using a Tecan safire^2 fluorescence plate reader. For each sample, the self-fluorescence response (fluorescence emission from 370-385 nm) of the peptoid is plotted as a function of amyloid beta aggregate concentration.

Aβ42 fiber = Aβ42 fiber (Homo sapiens, UniProt P05067); experiment: Self-fluorescence specificity assay of probe in 10% human CSF; assay type: binding; parameters: unit not given here; details: 70 nM probe; 10% (v/v) normal human CSF; FIG. 2
Protocol: (§1) The specificity of the probe is confirmed as follows. 70 nM of the peptide probe of SEQ ID NO:22 is incubated with several potential substrates in a solution consisting of 10 mM Hepes (pH 7.0), 0.0074% Tween20 and 10% (v/v) normal human CSF. […] There also is a significant response to Aβ42 fiber down to at least […]. […] Since fibers are easily removed from the reaction by a centrifugation step, specificity for amyloid beta oligomers is easily obtained.

Aβ40 fiber = Aβ40 fiber (Homo sapiens, UniProt P05067); experiment: as above; assay type: binding; details: 70 nM probe; 10% (v/v) normal human CSF; FIG. 2
Protocol: as §1

Aβ40 monomer [1] = biological target: T1, Aβ40 monomer (Homo sapiens, UniProt P05067); experiment: as above; assay type: binding; details: 70 nM probe; 10% (v/v) normal human CSF; FIG. 2
Protocol: as §1

Aβ42 monomer [2] = biological target: T2, Aβ42 monomer (Homo sapiens, UniProt P05067); experiment: as above; assay type: binding; details: 70 nM probe; 10% (v/v) normal human CSF; FIG. 2
Protocol: as §1

carbonic anhydrase = experiment: as above; assay type: binding; details: 70 nM probe; 10% (v/v) normal human CSF; FIG. 2
Protocol: as §1

human serum albumin [3] = biological target: T3, human serum albumin (Homo sapiens, UniProt P02768); experiment: as above; assay type: binding; details: 70 nM probe; 10% (v/v) normal human CSF; except at the highest dose, 0.16 mg/mL; FIG. 2
Protocol: as §1

[4] = biological target: synthetic Aβ42 oligomer (Aβ42 Oligo Type A) (Homo sapiens, UniProt P05067); experiment: Plate-based ELISA-like assay with immobilized biotinylated peptide probe (6E10-HRP/TMB detection); assay type: binding
Protocol: FIG. 4A and FIG. 4B illustrate the results in buffer and 10% soluble mouse brain extract using SEQ ID NO:41 as a peptide probe. […] The white bars indicate control reactions in which peptide are not added. Black bars show the complete reaction in which 9000, 1500, 250, 42, 7, 1.2, 0.2, or 0 pM Aβ42 oligomer is added (in triplicate) to wells containing bound peptide probe of SEQ ID NO:41.
The white bars indicate control reactions in which peptide are not added. Black bars show the complete reaction in which 10% human TBS brain extract containing 750, 250, 85, 28, 9.5, 3.1, or 0 pM Aβ42 oligomer is added (in triplicate) to wells containing bound peptide probe of SEQ ID NO:41.
FIG. 5A and FIG. 5B illustrate the results in 10% (A) and 30% (B) human brain TBS extract using SEQ ID NO:41 as a peptide probe. […] The white bars indicate control reactions in which peptide is not added. Black bars show the complete reaction in which 10% human TBS brain extract containing 750, 250, 85 or 0 pM Aβ42 oligomer is added (in triplicate) to wells containing bound peptide probe of SEQ ID NO:41.
The white bars indicate control reactions in which peptide are not added. Black bars show the complete reaction in which 30% human TBS brain extract containing 750, 250, 85, 28, 9.5, 3.1, or 0 pM Aβ42 oligomer is added (in triplicate) to wells containing bound peptide probe of SEQ ID NO:41.

Aβ40 Dimer = details: Mouse
Protocol: (§2) A plate-based ELISA-like assay was developed in which the above-described peptide probes may be used to capture and detect target amyloid beta protein (such as oligomers). […] Streptavidin-coated 96-well plates are prepared, followed by introduction of biotinylated peptide. Sample is then added to the wells and allowed to incubate, such as for two hours at room temperature. Any target amyloid beta protein in the sample will be capture by the immobilized peptide probe. The plate is then washed, such as using a low salt buffer to eliminate potential interfering factors (e.g. endogenous proteins, lipids, and other debris). The remaining amyloid beta aggregate-peptide probe complex is bound to a reporter antibody that is specific for the N-terminus of the amyloid beta sequence (6E10-HRP), and detected by addition of 3,3′,5,5′-tetramethylbenzidine (TMB).
(§3) Soluble brain extracts are prepared according to a known method. For example 5 mL tris-buffered saline (PH 7.4) is added per gram of frozen brain tissue, and then homogenized with a dounce homogenizer (25 strokes). The material is then centrifuged at 21,900× g for 30 minutes at 4 C. The resulting TBS supernatant (soluble extract) is used at 10-30% (v/v) final concentration in the following assays.

Aβ40 monomer [5] = biological target: T1, Aβ40 monomer; experiment: Plate-based ELISA-like assay with immobilized biotinylated peptide probe; assay type: binding; details: for Limit of detection, Aβ40 Monomer: up to 15 nM
Protocol: as §2, §3

Aβ42 Oligo (Type B) = Aβ42 Oligo (Type B) (Homo sapiens, UniProt P05067); experiment: as above; assay type: binding
Protocol: as §2, §3

Aβ42 monomer [6] = biological target: T2, Aβ42 monomer; experiment: as above; assay type: binding; details: for Limit of detection, Aβ42 Monomer: up to 15 nM
Protocol: as §2, §3

human serum albumin [7] = biological target: T3, human serum albumin; experiment: as above; assay type: binding
Protocol: as §2, §3

human serum albumin [8] = biological target: human serum albumin (human, UniProt P02768 25-609); experiment: plate assay, biotinylated probe on streptavidin plate, 6E10-HRP/TMB detection; Human column (brain extract)

Molecule: PBA-KLVFFAEDVGSNKHAIIELMK(PBA)-NH2 ({Butanoyl(4-pyren-1-yl)}-KLVFFAEDVGSNKHAIIELMK(Butanoyl(4-pyren-1-yl))-NH2; SMILES CC[C@H](C)[C@H](NC(=O)[C@H](C)NC(=O)[C@H](Cc1c[nH]cn1)NC(=O)[C@H](CCCCN)NC(=O)[C@H](CC(N)=O)NC(=O)[C@H](CO)NC(=O)CNC(=O)[C@@H](NC(=O)[C@H](CC(=O)O)NC(=O)[C@H](CCC(=O)O)NC(=O)[C@H](C)NC(=O)[C@H](Cc1ccccc1)NC(=O)[C@H](Cc1ccccc1)NC(=O)[C@@H](NC(=O)[C@H](CC(C)C)NC(=O)[C@H](CCCCN)NC(=O)CCCc1ccc2ccc3cccc4ccc1c2c34)C(C)C)C(C)C)C(=O)N[C@H](C(=O)N[C@@H](CCC(=O)O)C(=O)N[C@@H](CC(C)C)C(=O)N[C@@H](CCSC)C(=O)N[C@@H](CCCCNC(=O)CCCc1ccc2ccc3cccc4ccc1c2c34)C(N)=O)[C@@H](C)CC) [SEQ ID NO:2, Salt bridge at G29H and G33E]
- Aβ42 oligomer concentration statistically distinguishable from the control reaction (net self-fluorescence response, t-test) (synthetic Aβ42 oligomer; 10 mM Hepes pH 7.0, 0.0074% Tween20, 30% (v/v) normal human CSF, emission 370-385 nm, FIG. 1): 450 pM

Molecule: PBA-KLVFFAEDVGSNKGAIIGLMK(PBA)rr-NH2 ({Butanoyl(4-pyren-1-yl)}-KLVFFAEDVGSNKGAIIGLMK(Butanoyl(4-pyren-1-yl))[dR][dR]-NH2; SMILES CC[C@H](C)[C@H](NC(=O)[C@H](C)NC(=O)CNC(=O)[C@H](CCCCN)NC(=O)[C@H](CC(N)=O)NC(=O)[C@H](CO)NC(=O)CNC(=O)[C@@H](NC(=O)[C@H](CC(=O)O)NC(=O)[C@H](CCC(=O)O)NC(=O)[C@H](C)NC(=O)[C@H](Cc1ccccc1)NC(=O)[C@H](Cc1ccccc1)NC(=O)[C@@H](NC(=O)[C@H](CC(C)C)NC(=O)[C@H](CCCCN)NC(=O)CCCc1ccc2ccc3cccc4ccc1c2c34)C(C)C)C(C)C)C(=O)N[C@H](C(=O)NCC(=O)N[C@@H](CC(C)C)C(=O)N[C@@H](CCSC)C(=O)N[C@@H](CCCCNC(=O)CCCc1ccc2ccc3cccc4ccc1c2c34)C(=O)N[C@H](CCCNC(=N)N)C(=O)N[C@H](CCCNC(=N)N)C(N)=O)[C@@H](C)CC) [SEQ ID NO:22, WT, with 2 C-terminal dArg residues, and alternate label site]
- peptide probe fluorescence response to Aβ42 oligomer (synthetic Aβ42 oligomer; 10% (v/v) normal human CSF, FIG. 2): strong and dose-dependent response
- lowest Aβ42 fiber concentration giving significant response (Aβ42 fiber): ≤ 100
- peptide fluorescence response to Aβ40 fiber (Aβ40 fiber): little or no peptide fluorescence response
- peptide fluorescence response to Aβ40 monomer (Aβ40 monomer [1]): little or no peptide fluorescence response
- peptide fluorescence response to Aβ42 monomer (Aβ42 monomer [2]): little or no peptide fluorescence response
- peptide fluorescence response to carbonic anhydrase (carbonic anhydrase): little or no peptide fluorescence response
- peptide fluorescence response to human serum albumin (human serum albumin [3]): little or no peptide fluorescence response

Molecule: PBA-KLVFFAEDVGSNKHAIIELMK(PBA)GLVPR GSGK(biotin)-NH2 [SEQ ID NO:41]
- lowest amount of amyloid beta aggregate detected in plate assay (t-test) ([4]; 10% human TBS brain extract, FIG. 4B): 28 pM
- amyloid beta aggregate detectable down to ([4]; 30% human TBS brain extract, FIG. 5B): ≤ 85 pM
- Limit of detection, Aβ42 Oligo (Type A) ([4]; Human): ~28 pM
- Limit of detection, Aβ42 Oligo (Type A) ([4]; Mouse): ~28 to 85 pM
- lowest amount of amyloid beta aggregate detected in plate assay (t-test) ([4]; buffer system, FIG. 4A): 7 pM
- Limit of detection, Aβ40 Dimer (Aβ40 Dimer): 850 pM
- Limit of detection, Aβ40 Monomer (Aβ40 monomer [5]; Human): Not detected
- Limit of detection, Aβ40 Monomer (Aβ40 monomer [5]; Mouse): Not detected
- TMB response to Aβ40 monomer (Aβ40 monomer [5]; plate assay): little to no TMB response
- Limit of detection, Aβ42 Oligo (Type B) (Aβ42 Oligo (Type B); Human): 8.5 pM
- Limit of detection, Aβ42 Oligo (Type B) (Aβ42 Oligo (Type B); Mouse): ~8.5 pM
- Limit of detection, Aβ42 Monomer (Aβ42 monomer [6]; Human): Not detected
- Limit of detection, Aβ42 Monomer (Aβ42 monomer [6]; Mouse): Not detected
- TMB response to Aβ42 monomer (Aβ42 monomer [6]; plate assay): little to no TMB response
- Limit of detection, has (human serum albumin [7]; Human, up to 0.15 mg/mL): Not detected
- Limit of detection, has (human serum albumin [7]; Mouse): Not detected
- TMB response to human serum albumin (human serum albumin [7]; plate assay): little to no TMB response

B1: peptide probe of SEQ ID NO:41 (peptide)
peptide: {Butanoyl(4-pyren-1-yl)}-KLVFFAEDVGSNKHAIIELMK(Butanoyl(4-pyren-1-yl))GLVPRGSGK(Biotin)-NH2
SMILES: CC[C@H](C)[C@H](NC(=O)[C@H](C)NC(=O)[C@H](Cc1c[nH]cn1)NC(=O)[C@H](CCCCN)NC(=O)[C@H](CC(N)=O)NC(=O)[C@H](CO)NC(=O)CNC(=O)[C@@H](NC(=O)[C@H](CC(=O)O)NC(=O)[C@H](CCC(=O)O)NC(=O)[C@H](C)NC(=O)[C@H](Cc1ccccc1)NC(=O)[C@H](Cc1ccccc1)NC(=O)[C@@H](NC(=O)[C@H](CC(C)C)NC(=O)[C@H](CCCCN)NC(=O)CCCc1ccc2ccc3cccc4ccc1c2c34)C(C)C)C(C)C)C(=O)N[C@H](C(=O)N[C@@H](CCC(=O)O)C(=O)N[C@@H](CC(C)C)C(=O)N[C@@H](CCSC)C(=O)N[C@@H](CCCCNC(=O)CCCc1ccc2ccc3cccc4ccc1c2c34)C(=O)NCC(=O)N[C@@H](CC(C)C)C(=O)N[C@H](C(=O)N1CCC[C@H]1C(=O)N[C@@H](CCCNC(=N)N)C(=O)NCC(=O)N[C@@H](CO)C(=O)NCC(=O)N[C@@H](CCCCNC(=O)CCCC[C@@H]1SC[C@@H]2NC(=O)N[C@@H]21)C(N)=O)C(C)C)[C@@H](C)CC
notes: P22 with a thrombin site linker and biotin at the C-terminus, immobilised on streptavidin-coated plates; also called AD317; biotinylated peptide probe
- binding result (human serum albumin [8]): no binding (tested: up to 0.15 mg/mL)
